Experimental data: PubChem BioAssay AID2060618 (Molecular Pharmacology Branch, DTP, NCI, 2025)
Values belong to the compound of their own block, whether it stands above or below them.

Tested on: 454973-116-R2-J3-PDC spheroids, percent test/control viability
Experiment: Anticancer human tumor 454973-116-R2-J3-PDC patient-derived pancreatic carcinoma cell line growth inhibition [CLK]
Details: spheroids with HUVEC and MSC; for IC50: curve of first compound; for viability, T/C: stronger effect = lower value
How it was run: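 Patient-derived tumor cells grown as complex spheroids with HUVEC endothelial cells and mesenchymal stem cells, treated with drug combinations. Concentrations descend in half-log steps from near clinical Cmax, or from 10 microM if Cmax unknown.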

[1] = second compound 0.0316 µM, first compound 0.0316 µM
[2] = second compound 0.0316 µM, first compound 0.1 µM
[3] = second compound 0.0316 µM, first compound 0.316 µM
[4] = second compound 0.0316 µM, first compound 1 µM
[5] = second compound 0.0316 µM, first compound 3.16 µM
[6] = second compound 0.0316 µM, first compound 10 µM
[7] = second compound 0.1 µM, first compound 0.0316 µM
[8] = second compound 0.1 µM, first compound 0.1 µM
[9] = second compound 0.1 µM, first compound 0.316 µM
[10] = second compound 0.1 µM, first compound 1 µM
[11] = second compound 0.1 µM, first compound 3.16 µM
[12] = second compound 0.1 µM, first compound 10 µM
[13] = second compound 0.316 µM, first compound 0.0316 µM
[14] = second compound 0.316 µM, first compound 0.1 µM
[15] = second compound 0.316 µM, first compound 0.316 µM
[16] = second compound 0.316 µM, first compound 1 µM
[17] = second compound 0.316 µM, first compound 3.16 µM
[18] = second compound 0.316 µM, first compound 10 µM
[19] = second compound 1 µM, first compound 0.0316 µM
[20] = second compound 1 µM, first compound 0.1 µM
[21] = second compound 1 µM, first compound 0.316 µM
[22] = second compound 1 µM, first compound 1 µM
[23] = second compound 1 µM, first compound 3.16 µM
[24] = second compound 1 µM, first compound 10 µM
[25] = second compound 3.16 µM, first compound 0.0316 µM
[26] = second compound 3.16 µM, first compound 0.1 µM
[27] = second compound 3.16 µM, first compound 0.316 µM
[28] = second compound 3.16 µM, first compound 1 µM
[29] = second compound 3.16 µM, first compound 3.16 µM
[30] = second compound 3.16 µM, first compound 10 µM
[31] = second compound 10 µM, first compound 0.0316 µM
[32] = second compound 10 µM, first compound 0.1 µM
[33] = second compound 10 µM, first compound 0.316 µM
[34] = second compound 10 µM, first compound 1 µM
[35] = second compound 10 µM, first compound 3.16 µM
[36] = second compound 10 µM, first compound 10 µM
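Also: spheroids exposed to compounds for 7 days before readout.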

IC50 (second compound 0.0316 µM): 0.0401 µM
IC50 (second compound 0.1 µM): 0.035 µM
IC50 (second compound 0.316 µM): < 0.0316 µM
IC50 (second compound 1 µM): < 0.0316 µM
IC50 (second compound 3.16 µM): < 0.0316 µM
IC50 (second compound 10 µM): < 0.0316 µM
Compound: C#Cc1c(F)ccc2cc(O)cc(-c3ncc4c(N5CC6CCC(C5)N6)nc(OCC56CCCN5CC(F)C6)nc4c3F)c12 (stereo not drawn) + CNC(=O)c1ccc(Nc2nc(OC3CCCC3)c3c(-c4ccc5nc(C)oc5c4)c[nH]c3n2)c(OC)c1
viability, T/C [1]: 52.8%
viability, T/C [2]: 41.1%
viability, T/C [3]: 32.7%
viability, T/C [4]: 32.5%
viability, T/C [5]: 29.4%
viability, T/C [6]: 22.4%
viability, T/C [7]: 50.7%
viability, T/C [8]: 43.8%
viability, T/C [9]: 33.5%
viability, T/C [10]: 27.5%
viability, T/C [11]: 26%
viability, T/C [12]: 15.1%
viability, T/C [13]: 37.8%
viability, T/C [14]: 30.9%
viability, T/C [15]: 19.4%
viability, T/C [16]: 12.7%
viability, T/C [17]: 13.8%
viability, T/C [18]: 12.1%
viability, T/C [19]: 16.7%
viability, T/C [20]: 12.7%
viability, T/C [21]: 12.2%
viability, T/C [22]: 12.7%
viability, T/C [23]: 10.9%
viability, T/C [24]: 7.84%
viability, T/C [25]: 15.9%
viability, T/C [26]: 12.7%
viability, T/C [27]: 11.3%
viability, T/C [28]: 11.3%
viability, T/C [29]: 9.18%
viability, T/C [30]: 6.34%
viability, T/C [31]: 17.9%
viability, T/C [32]: 12.4%
viability, T/C [33]: 11.5%
viability, T/C [34]: 12%
viability, T/C [35]: 10.3%
viability, T/C [36]: 5.25%

IC50 (second compound 0.0316 µM): > 10 µM
IC50 (second compound 0.1 µM): > 10 µM
IC50 (second compound 0.316 µM): < 0.0316 µM
IC50 (second compound 1 µM): < 0.0316 µM
IC50 (second compound 3.16 µM): < 0.0316 µM
IC50 (second compound 10 µM): < 0.0316 µM
Compound: CC(CO)NC(=O)c1cc(-c2ccc(Cl)cc2)nn(-c2cnn(C)c2)c1=O (stereo not drawn) + CNC(=O)c1ccc(Nc2nc(OC3CCCC3)c3c(-c4ccc5nc(C)oc5c4)c[nH]c3n2)c(OC)c1
viability, T/C [1]: 105%
viability, T/C [2]: 96.5%
viability, T/C [3]: 111%
viability, T/C [4]: 112%
viability, T/C [5]: 100%
viability, T/C [6]: 77%
viability, T/C [7]: 105%
viability, T/C [8]: 105%
viability, T/C [9]: 96.2%
viability, T/C [10]: 99.7%
viability, T/C [11]: 101%
viability, T/C [12]: 80.8%
viability, T/C [13]: 46%
viability, T/C [14]: 41.3%
viability, T/C [15]: 47.2%
viability, T/C [16]: 37.1%
viability, T/C [17]: 45.2%
viability, T/C [18]: 43.5%
viability, T/C [19]: 33.7%
viability, T/C [20]: 32.9%
viability, T/C [21]: 32.8%
viability, T/C [22]: 31.6%
viability, T/C [23]: 30.8%
viability, T/C [24]: 32.1%
viability, T/C [25]: 24.5%
viability, T/C [26]: 31.7%
viability, T/C [27]: 30.2%
viability, T/C [28]: 30.5%
viability, T/C [29]: 34.9%
viability, T/C [30]: 29%
viability, T/C [31]: 30.3%
viability, T/C [32]: 31.7%
viability, T/C [33]: 31.8%
viability, T/C [34]: 27.6%
viability, T/C [35]: 29.3%
viability, T/C [36]: 24.7%

IC50 (second compound 0.0316 µM): > 10 µM
IC50 (second compound 0.1 µM): 5.04 µM
IC50 (second compound 0.316 µM): 0.467 µM
IC50 (second compound 1 µM): < 0.0316 µM
IC50 (second compound 3.16 µM): < 0.0316 µM
IC50 (second compound 10 µM): < 0.0316 µM
Compound: CC(Nc1ccc2c(c1)OCCn1cc(N3C(=O)OCC3C(F)F)nc1-2)C(N)=O (stereo not drawn) + CNC(=O)c1ccc(Nc2nc(OC3CCCC3)c3c(-c4ccc5nc(C)oc5c4)c[nH]c3n2)c(OC)c1
viability, T/C [1]: 98.4%
viability, T/C [2]: 79.5%
viability, T/C [3]: 80%
viability, T/C [4]: 70.7%
viability, T/C [5]: 67.9%
viability, T/C [6]: 46%
viability, T/C [7]: 96.8%
viability, T/C [8]: 86.4%
viability, T/C [9]: 74.9%
viability, T/C [10]: 59%
viability, T/C [11]: 58.6%
viability, T/C [12]: 43%
viability, T/C [13]: 54.8%
viability, T/C [14]: 54.4%
viability, T/C [15]: 55.6%
viability, T/C [16]: 41.2%
viability, T/C [17]: 36.8%
viability, T/C [18]: 30.3%
viability, T/C [19]: 31.1%
viability, T/C [20]: 26.9%
viability, T/C [21]: 22.5%
viability, T/C [22]: 19.7%
viability, T/C [23]: 16.9%
viability, T/C [24]: 13.5%
viability, T/C [25]: 23.5%
viability, T/C [26]: 26.3%
viability, T/C [27]: 23.5%
viability, T/C [28]: 21.5%
viability, T/C [29]: 14.7%
viability, T/C [30]: 13.5%
viability, T/C [31]: 24.3%
viability, T/C [32]: 22.8%
viability, T/C [33]: 21.1%
viability, T/C [34]: 19.7%
viability, T/C [35]: 13.3%
viability, T/C [36]: 11.1%

IC50 (second compound 0.0316 µM): 0.0722 µM
IC50 (second compound 0.1 µM): 0.0669 µM
IC50 (second compound 0.316 µM): 0.0179 µM
IC50 (second compound 1 µM): < 0.00316 µM
IC50 (second compound 3.16 µM): < 0.00316 µM
IC50 (second compound 10 µM): < 0.00316 µM
Compound: COc1c(OCCCN2CCOCC2)ccc2c3n(c(=NC(=O)c4cnc(N)nc4)nc12)CCN3 + CNC(=O)c1ccc(Nc2nc(OC3CCCC3)c3c(-c4ccc5nc(C)oc5c4)c[nH]c3n2)c(OC)c1
viability, T/C (second compound 0.0316 µM, first compound 0.00316 µM): 99.8%
viability, T/C (second compound 0.0316 µM, first compound 0.01 µM): 93%
viability, T/C [1]: 71.3%
viability, T/C [2]: 39%
viability, T/C [3]: 24.4%
viability, T/C [4]: 8.47%
viability, T/C (second compound 0.1 µM, first compound 0.00316 µM): 96.2%
viability, T/C (second compound 0.1 µM, first compound 0.01 µM): 79.6%
viability, T/C [7]: 70.5%
viability, T/C [8]: 37.5%
viability, T/C [9]: 24.2%
viability, T/C [10]: 8.81%
viability, T/C (second compound 0.316 µM, first compound 0.00316 µM): 56.4%
viability, T/C (second compound 0.316 µM, first compound 0.01 µM): 54.7%
viability, T/C [13]: 47%
viability, T/C [14]: 26.1%
viability, T/C [15]: 17.5%
viability, T/C [16]: 7.41%
viability, T/C (second compound 1 µM, first compound 0.00316 µM): 34.2%
viability, T/C (second compound 1 µM, first compound 0.01 µM): 30.5%
viability, T/C [19]: 22.2%
viability, T/C [20]: 13.1%
viability, T/C [21]: 8.12%
viability, T/C [22]: 4.63%
viability, T/C (second compound 3.16 µM, first compound 0.00316 µM): 25.7%
viability, T/C (second compound 3.16 µM, first compound 0.01 µM): 24.6%
viability, T/C [25]: 21.1%
viability, T/C [26]: 14.8%
viability, T/C [27]: 7.11%
viability, T/C [28]: 5.46%
viability, T/C (second compound 10 µM, first compound 0.00316 µM): 24.2%
viability, T/C (second compound 10 µM, first compound 0.01 µM): 22%
viability, T/C [31]: 17.8%
viability, T/C [32]: 13.3%
viability, T/C [33]: 8.89%
viability, T/C [34]: 3.02%
